Assay results reported in PMC5882637, “Ethanol potentiates the genotoxicity of the food-derived mammary carcinogen PhIP in human estrogen receptor-positive mammary cells: mechanistic support for lifestyle factors (cooked red meat and ethanol) associated with mammary cancer” (Archives of Toxicology, 2018).

How the values were obtained:
MCF-7 cells [1] = test: Cytotoxicity (cell counting, TrypanBlue exclusion), MCF-7; conditions: for change in cell survival following treatment: Fig. 1a
Experimental: (§1) Cells were cultured routinely in 75-cm^2 flasks in a humidified incubator at 37 °C, 5% CO2.
(§2) Briefly, cells were seeded at a density of 5 × 10^4 cells per well in 24-well plate. Cells were treated with PhIP or ethanol as detailed previously. Following treatment with chemicals and harvesting (48 h), cells were trypsinised, the cell concentration adjusted to 2 × 10^5 and re-suspended in serum-free R0 (serum-free media) with 2% pluronic acid medium (GIBCO, Life technologies) and cytotoxicity was determined by counting cells in a haemocytometer with TrypanBlue exclusion (GIBCO, Life technologies). For the MN assay, cells were spread on a microscope slide using a cytospin. Cells at a density of 2 × 10^4 cells per slide were fixed with 100% methanol and stained for 60 s with acridine orange (0.1 mg ml^−1 dissolved in PBS, Sigma-Aldrich). Frequency of MN was scored in 2000 cells per sample and three biological replicates were performed per treatment.

MDA-MB-231 cells [2] = test: Cytotoxicity (cell counting, TrypanBlue exclusion), MDA-MB-231; conditions: for change in cell survival following treatment: Fig. 1b
Experimental: as §1, §2

CYP1A2 mRNA expression [3] = test: RT-qPCR CYP1A2 mRNA, MCF-7; conditions: 24 h, E2 1 µM, Fig. 2a
Experimental: as §1
(§3) Following treatment, cells were lysed using TRIZOL reagent and chloroform (0.2 ml) was added in each sample and centrifuged 12,000xg (10 min 2–8 °C). The upper aqueous phase was transferred to a fresh tube and 5 µg of RNase-free glycogen (as carrier to aqueous phase) and 0.5 ml of isopropyl alcohol was added to precipitate RNA and incubated (37 °C, 10 min). Following incubation, lysates were centrifuged at 12,000xg (10 min 2–8 °C). The gel-like pellet was washed with ethanol and re-dissolved in RNase-free water with heating (55–60 °C). Extracted RNA was quantified by UV spectroscopy (UV–VIS Nano-spectrophotometer, Implen, Essex, UK) and purity was assessed from 260/280 nm and 260/230 nm ratios. Reverse transcription (RT) of extracted RNA (100–500 ng) was completed according to manufacturer’s protocol (Invitrogen) and qPCR was performed using predesigned Taqman gene expression assays and FAST PCR master mix (Taqman, Applied Biosystems, Life technologies) using a StepOnePlus fast real-time PCR system (Applied Biosystems, Life technologies). Target gene expression was normalized to GAPDH and quantified using the delta-Ct method (Livak and Schmittgen [2001]).

CYP1B1 mRNA expression [4] = test: RT-qPCR CYP1B1 mRNA, MCF-7; conditions: for CYP1B1 mRNA expression vs vehicle control: MCF-7, 24 h, E2 1 µM, Fig. 2b
Experimental: as §1, §3

CYP1A2 mRNA expression [5] = test: RT-qPCR CYP1A2 mRNA, MDA-MB-231; conditions: 24 h, E2 1 µM, Fig. 2c
Experimental: as §1, §3

MCF-7 cells [6] = test: Micronucleus (MN) assay, MCF-7
Experimental: as §1, §2

MDA-MB-231 cells [7] = test: Micronucleus (MN) assay, MDA-MB-231
Experimental: as §1, §2

CYP1A1 [8] = test: RT-qPCR CYP1A1 mRNA, MCF-7; assay type: cell-based, human; conditions: data not shown
Experimental: as §1, §3

CYP1B1 mRNA expression [9] = test: RT-qPCR CYP1B1 mRNA, MDA-MB-231; conditions: 24 h, E2 1 µM, Fig. 2d
Experimental: as §1, §3

CYP1A1 [10] = test: RT-qPCR CYP1A1 mRNA, MDA-MB-231; assay type: cell-based, human; conditions: data not shown
Experimental: as §1, §3

CYP2E1 mRNA expression [11] = test: RT-qPCR CYP2E1 mRNA, MCF-7
Experimental: as §1
For STAT3 inhibition, cells were co-treated for 24 h with PhIP and 25 µM STAT3 inhibitor (STAT3 inhibitor VIII 5, 15 diphenylporphyrin, Millipore, Feltham, UK). STAT3 inhibitor was dissolved in DMSO. For ethanol treatment, media was supplemented with different concentrations of ethanol (10 mM-100 mM, Sigma-Aldrich) and was added to the cells. In some experiments, N-acetyl-cysteine (NAC) (10 mM, Sigma-Aldrich) diluted in phosphate-buffered saline (PBS) was added to incubations.
as §3

CYP2E1 mRNA expression [12] = test: RT-qPCR CYP2E1 mRNA, MDA-MB-231; assay type: cell-based, human; conditions: PhIP treatment, Fig. 3a
Experimental: as §1, §3

STAT3 mRNA expression = test: qPCR STAT3 mRNA, MCF-7; assay type: cell-based, human; conditions: 24 h PhIP treatment, Fig. 3b
Experimental: as §1, §3

JAK2 mRNA expression = test: qPCR JAK2 mRNA, MCF-7; assay type: cell-based, human; conditions: PhIP-treated, Fig. 3b
Experimental: as §1, §3

miR378 expression = test: qPCR miR378, MCF-7; assay type: cell-based, human; conditions: 24 h PhIP treatment, Fig. 3b
Experimental: as §1, §3

[13] = tested on: intracellular ROS in MCF-7 cells; test: ROS assay (carboxy-DCF-DA), MCF-7; assay type: cell-based, human; conditions: for intracellular ROS levels: ethanol 50 mM or PhIP 100 µM alone, Fig. 6c
Experimental: STAT3 inhibitor was dissolved in DMSO.
Production of reactive oxygen species (ROS) was measured using 2′,7′–dichlorofluorescein diacetate method. Carboxy-2′,7′-dichlorofluorescein diacetate (carboxy-DCF-DA) is taken up by viable cells and cleaved by endogenous esterases to the nonfluorescent derivative, reduced carboxy-dichlorofluorescein (carboxy-DCFH). This product is retained in the cytosol where it can be oxidized by intracellular ROS to the highly fluorescent product, oxidised carboxy-dichlorofluorescein (carboxy-DCF). The intensity of fluorescence is proportional to intracellular ROS levels. MCF-7 cells (2 × 10^4/well) were seeded into 24-well plates in 1% FBS and allowed to attach overnight. Cells were treated with PhIP for 24 h and then treated with Carboxy-DCFDA (20 µL, 30 µM) in media containing 1% FBS (1 ml) and incubated for 30 min at 37 °C, washed with PBS and new media (1% FBS) was added. Fluorescent measurements (excitation at 485 nm and emission at 520 nm) were then taken from 10 min to 24 h using a fluorescence plate reader (BMG POLARstar Galaxy Labtech, Ortenberg, Germany). The concentration of DMSO (0.2%) was identical in all treatments and had no effect on ROS production at this concentration.

[14] = PhIP 100 nM, three independent cultures

## C[C@]12CC[C@@H]3c4ccc(O)cc4CC[C@H]3[C@@H]1CC[C@@H]2O [E2, Estradiol]
MCF-7 cells [1]
  change in cell survival following treatment: No significant change
MDA-MB-231 cells [2]
  change in cell survival following treatment: No significant change
CYP1A2 mRNA expression [3]
  CYP1A2 mRNA expression vs vehicle control: No significant change
CYP1B1 mRNA expression [4]
  CYP1B1 mRNA expression vs vehicle control: upregulated
CYP1A2 mRNA expression [5]
  CYP1A2 mRNA expression vs vehicle control: No significant change

## Cn1c(N)nc2ncc(-c3ccccc3)cc21 [PhIP, 2-amino-1-methyl-6-phenylimidazo[4,5-b]pyridine]
MCF-7 cells [1]
  change in cell survival following treatment: No significant change
MCF-7 cells [1]; [14]
  Cytotoxicity (percent survival ± SD): 86% ± 2.4
MCF-7 cells [1]; PhIP 1 µM
  Cytotoxicity (percent survival ± SD): 85.6% ± 2.4
MCF-7 cells [1]; PhIP 10 µM
  Cytotoxicity (percent survival ± SD): 85.8% ± 2.6
MCF-7 cells [1]; PhIP 100 µM
  Cytotoxicity (percent survival ± SD): 82.7% ± 1.7
MDA-MB-231 cells [2]
  change in cell survival following treatment: No significant change
MDA-MB-231 cells [2]; PhIP 100 nM
  Cytotoxicity (percent survival ± SD): 87.2% ± 0.9
MDA-MB-231 cells [2]; PhIP 1 µM
  Cytotoxicity (percent survival ± SD): 88.1% ± 0.9
MDA-MB-231 cells [2]; PhIP 10 µM
  Cytotoxicity (percent survival ± SD): 90.4% ± 4.3
MDA-MB-231 cells [2]; PhIP 100 µM
  Cytotoxicity (percent survival ± SD): 87.7% ± 1.5
MCF-7 cells [6]; [14]
  MN frequency (mean ± SD): 12.8 ± 5.1 MN/1000 cells
MCF-7 cells [6]; PhIP 1 µM
  MN frequency (mean ± SD): 22.3 ± 2.6 MN/1000 cells
MCF-7 cells [6]; PhIP 10 µM
  MN frequency (mean ± SD): 29.2 ± 3.4 MN/1000 cells
MCF-7 cells [6]; PhIP 100 µM
  MN frequency (mean ± SD): 49 ± 3.5 MN/1000 cells
MDA-MB-231 cells [7]; PhIP 100 nM
  MN frequency (mean ± SD): 3.2 ± 2.5 MN/1000 cells
MDA-MB-231 cells [7]; PhIP 1 µM
  MN frequency (mean ± SD): 4.7 ± 1.8 MN/1000 cells
MDA-MB-231 cells [7]; PhIP 10 µM
  MN frequency (mean ± SD): 9 ± 0.9 MN/1000 cells
MDA-MB-231 cells [7]; PhIP 100 µM
  MN frequency (mean ± SD): 13.7 ± 1.3 MN/1000 cells
CYP1A2 mRNA expression [3]
  CYP1A2 mRNA expression vs vehicle control: can induce
CYP1B1 mRNA expression [4]
  CYP1B1 mRNA expression vs vehicle control: can induce
CYP1B1 mRNA expression [4]; PhIP, Fig. 2
  CYP1B1 induction in MCF-7 compared to MDA-MB-231 cells: higher
CYP1A1 [8]
  CYP1A1 induction: failed to induce
CYP1A2 mRNA expression [5]
  CYP1A2 mRNA expression vs vehicle control: can induce
CYP1B1 mRNA expression [9]
  CYP1B1 mRNA expression vs vehicle control: can induce
CYP1A1 [10]
  CYP1A1 induction: failed to induce
CYP2E1 mRNA expression [11]; PhIP treatment, Fig. 3a
  CYP2E1 mRNA expression: induced CYP2E1 mRNA expression in a dose-dependent manner
CYP2E1 mRNA expression [12]
  CYP2E1 mRNA expression: but not in MDA-MB-231 cells
STAT3 mRNA expression
  STAT3 mRNA expression: dose-dependent upregulation
JAK2 mRNA expression
  JAK2 mRNA expression: dose-dependent increase
miR378 expression
  miR378 expression: no change
[13]; PhIP 24 h, pronounced over the first 60 min, Fig. 5a
  ROS levels: dose-dependent increase
[13]
  intracellular ROS levels: Elevated

## CCO [ethanol]
MCF-7 cells [6]; Fig. 7b
  effect of addition of ethanol on genotoxicity of etoposide: No change
MCF-7 cells [6]; ethanol 50 mM, 24 h, Fig. 7b
  MN induction: did not significantly induce
CYP2E1 mRNA expression [11]; Fig. 6a
  ethanol concentration at which CYP2E1 increase was significant: 50 to 100 mM
CYP2E1 mRNA expression [11]; ethanol 10 to 100 mM, Fig. 6a
  CYP2E1 expression: dose-dependent increase
[13]
  intracellular ROS levels: Elevated
